Reference: article PMC11377542, “An artificial intelligence accelerated virtual screening platform for drug discovery” (Nature Communications, 2024)
“And” between values parts separate entries of the source, which are not always exact repeats. Equal values may be shown once. Read-outs that look alike come from different tables or passages of the source.

Tests used:
KLHDC2 [1] = biological target: T1, KLHDC2 (Homo sapiens, UniProt Q9Y2U9); assay: Octet BioLayer Interferometry competition assay (biotinylated SelK peptide / GST-KLHDC2); assay type: binding; settings: BLI competition, C29 at 0-30 µM, 50 nM GST-KLHDC2
T1 construct: human KLHDC2 (UniProt: Q9Y2U9, amino acid 1–362); made in house; host or cells: HighFive insect cells (baculovirus, pFastBac)
T1 sequence (Q9Y2U9 1-362): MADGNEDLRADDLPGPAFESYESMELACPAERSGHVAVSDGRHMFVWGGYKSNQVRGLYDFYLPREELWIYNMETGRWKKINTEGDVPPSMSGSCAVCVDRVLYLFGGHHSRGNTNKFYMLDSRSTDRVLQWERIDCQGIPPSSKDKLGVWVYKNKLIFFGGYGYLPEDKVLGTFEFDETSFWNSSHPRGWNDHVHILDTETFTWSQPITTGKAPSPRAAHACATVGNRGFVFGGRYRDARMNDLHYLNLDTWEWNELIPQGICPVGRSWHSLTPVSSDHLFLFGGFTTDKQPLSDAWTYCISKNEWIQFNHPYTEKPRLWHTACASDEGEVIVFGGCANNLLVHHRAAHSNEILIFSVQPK
Description: Octet BioLayer interferometry competition assay monitoring the ability of C29 to interfere with the binding between the biotinylated 12 aa SelK peptide and GST-KLHDC2 was monitored using the Octet Red 96 (ForteBio, Pall Life Sciences) following the manufacturer’s procedures. The reaction was carried out in black 96 well plates maintained at 30 °C. The reaction volume was 200 μL in each well. The Octet buffer used throughout the experiment contained 20 mM Tris-HCl, 200 mM NaCl, 5 mM DTT and 0.1% BSA, pH 8.0. The Loading buffer contained the Octet buffer and biotinylated 12 aa SelK peptide, at a final concentration of 200 nM. […] The binding of the analyte GST-KLHDC2 in the presence or absence of the C29, to the optical probes was measured simultaneously using instrumental defaults for 225 sec as the probes were then incubated in Association buffer. The dissociation was measured for 600 sec while the probes were incubated in Octet buffer. […] The data were analyzed by the Octet data analysis software version 9.0.. […] The IC50 value was calculated using Prism 8 (GraphPad) from the nonlinear regression curve fit of the response values vs. log competitor concentration.
Supplementary Fig. 14 | BioLayer Interferometry competition assay of compound 29. […] The binding of the analyte GST-KLHDC2 in the presence or absence of the C29, to the loaded optical probes was measured in the association buffer. […]

KLHDC2 [2] = biological target: T1, KLHDC2; assay: AlphaLISA competition assay (displacement of SelK C-end degron peptide from GST-KLHDC2); assay type: binding; settings: IC50, competition with biotinylated 12 aa SelK degron peptide; 12-point titration, n = 3 technical replicates
Source text: We took the top-ranked 1000 compounds and filtered out compounds with low predicted solubility, unsatisfied hydrogen bonds in the bound conformation, and followed by similarity clustering to reduce the redundancy in ligand structures. A total of 54 molecules that passed the filtering and clustering were manually examined for favorable interactions and geometries in PyMol[34]. Finally, 37 compounds were chosen for chemical synthesis. Out of these, 29 compounds were successfully synthesized (Supplementary Fig. 13) and characterized in an AlphaLISA competition assay, in which each compound was tested for its ability to compete with a diglycine-containing SelK C-end degron peptide for binding KLHDC2. […] This single digit μM IC50 was further confirmed in a competition assay using BioLayer Interferometry (Supplementary Fig. 14).
The kelch repeat domain of human KLHDC2 (UniProt: Q9Y2U9, amino acid 1–362) was subcloned into the pFastBac vector with an N-terminally fused glutathione-S-transferase (GST), and a TEV-cleavage site. A recombinant baculovirus was produced and amplified three times in Sf9 monolayer cells to produce P4. The P4 virus was used to infect HighFive suspension insect cell cultures to produce the recombinant GST-KLHDC2 protein. The cells were harvested 2–3 days post-infection, re-suspended, and lysed in lysis buffer (20 mM Tris, pH 8.0, 200 mM NaCl, 5 mM DTT) in the presence of protease inhibitors (1 μg/ml Leupeptin, 1 μg/ml Pepstatin and 100 μM PMSF) using a microfluidizer. The GST-KLHDC2 protein was isolated from the soluble cell lysate by PierceTM Glutathione Agarose (Thermo Scientific). For AlphaLISA competition assays, the GST-tagged KLHDC2 was further purified by Q Sepharose High-Performance resin (GE Healthcare). The NaCl eluates were subjected to a Superdex-200 size exclusion chromatography column (GE Healthcare). All samples were flash-frozen in liquid nitrogen for storage prior to use. For protein crystallization, the kelch repeat domain of human KLHDC2 (amino acids 22–362) was subcloned into the pET vector with an N-terminally fused His-elongation factor Ts (TSF) and a TEV-cleavage site. The His-TSF-KLHDC2 protein was overexpressed and purified from BL21 (DE3) E. coli cells. Bacterial cells transformed with the pET-based expression plasmid were grown in LB broth to an OD600 of 0.8–1 and induced with 0.5 mM IPTG. Cells were harvested, re-suspended, and lysed in lysis buffer (20 mM Tris, pH 8.0, 200 mM NaCl, 20 mM imidazole) in the presence of protease inhibitors (1 μg mL–1 leupeptin, 1 μg mL–1 pepstatin and 100 μM phenylmethylsulfonyl fluoride) using a microfluidizer. The His-TSF-KLHDC2 protein was isolated from the soluble cell lysate by HisPurTM Ni-NTA Superflow Agarose (Thermo Fisher Scientific, Waltham, Massachusetts). After TEV cleavage of the His-TSF, KLHDC2 was further purified by Mono Q™ 5/50 GL (GE Healthcare, Chicago, Illinois). The NaCl eluates were subjected to Superdex-200 size-exclusion chromatography (GE Healthcare). Native mass spectrometry was used to confirm KLHDC2 in its apo form. The samples were concentrated by ultrafiltration to 10–22 mg mL−1. All samples were flash-frozen in liquid nitrogen for storage prior to use.
AlphaLISA assays for determining and measuring protein-protein interactions were performed using an EnSpire reader (PerkinElmer). GST-tagged KLHDC2 was attached to anti-GST AlphaLISA acceptor beads. Synthetic N-terminal biotinylated 12 aa SelK degron peptide ([Biotin]HLRGSPPPMAGG[C) (Bio-Synthesis, Inc.) was immobilized to streptavidin-coated AlphaLISA donor beads. The donor and acceptor beads were brought into proximity by the interactions between the SelK peptide and KLHDC2. Excitation of the donor beads by a laser beam of 680 nm promotes the formation of singlet oxygen. When an acceptor bead is in close proximity, the singlet oxygen reacts with thioxene derivatives in the acceptor beads and causes the emission of 615 nm photons, which are detected as the binding signal. […]

HERG (hKv11.1) = biological target: T2, HERG (hKv11.1) (Homo sapiens, UniProt Q12809); assay: Whole-cell patch-clamp electrophysiology on HEK293 cells stably expressing HERG, tail current; assay type: cell-based; settings: mean
T2 construct: expressed in transfected cells
Description: (§1) HEK-293 cells stably expressing human NaV1.5 and NaV1.7 were obtained from Dr. Chris Lossin (UC Davis, CA). HEK293 cells stably expressing HERG (hKv11.1) were a gift from Craig January (University of Wisconsin, Madison). Cells were cultured in complete DMEM supplemented with 10% FBS, 1% penicillin/streptomycin, and G418. All manual whole-cell patch-clamp recordings were performed at room temperature (22–24 °C) using an EPC-10 amplifier (HEKA Electronik, Lambrecht/Pfalz, Germany) on cells that were grown to 60–80% confluency, lifted with TrypLE, and plated onto poly-l-lysine–coated coverslips. External bath solution contains (in mM) 160 NaCl, 4.5 KCl, 2 CaCl2, 1 MgCl2, 10 HEPES (pH 7.4 and 305 mOsm) as. Patch pipettes were heat-pulled from soda lime glass (micro-hematocrit tubes, Kimble Chase, Rochester, NY) and had resistances of 2–3 MΩ when filled with an internal solution. […] Inhibition of currents in the resting state was recorded using a holding potential of − 120 mV. Control test currents were monitored for up to 5–10 min to ensure that the amplitude and kinetics of the response were stable. […] The percent reduction of HERG tail current amplitude by the compounds was determined. The percent of a block of tail current amplitude by the drugs was determined and data are shown as mean +/− SD (n = 3–4 per data point).

human NaV1.5 = biological target: T3, human NaV1.5 (Homo sapiens, UniProt Q14524); assay: Whole-cell patch-clamp electrophysiology on human NaV1.5 stably expressed in HEK-293 cells; assay type: cell-based; settings: -80 mV holding potential (inactivated state); mean
T3 construct: expressed in transfected cells
Description: as §1

hNaV1.7 channel = biological target: T4, hNaV1.7 channel (Homo sapiens, UniProt Q15858); assay: Whole-cell patch-clamp electrophysiology on hNaV1.7 stably expressed in HEK-293 cells; assay type: cell-based; settings: for IC50: mean
T4 construct: expressed in transfected cells
Source text: We first clustered the top 100,000 ranked small molecules, then applied filters on the top 1000 cluster representative molecules. A total of 160 molecules that passed the clustering and filtering were examined manually. To ensure the chemical novelty of our selection, we specifically excluded molecules that contain the known arylsulfonamide warhead or structurally resemble antihistamines or beta-receptor blockers. Finally, ten molecules with Tanimoto similarities of less than 0.33 to the known inhibitors of NaV1.7 from the ChEMBL database[43],[44] were selected for synthesis. Of these, nine were successfully synthesized (Supplementary Fig. 16), and their activities were measured using the whole-cell patch-clamp electrophysiology assay on hNaV1.7 channel stably expressed in HEK-293 cells as described in Methods.
HEK-293 cells stably expressing human NaV1.5 and NaV1.7 were obtained from Dr. Chris Lossin (UC Davis, CA). HEK293 cells stably expressing HERG (hKv11.1) were a gift from Craig January (University of Wisconsin, Madison). Cells were cultured in complete DMEM supplemented with 10% FBS, 1% penicillin/streptomycin, and G418. All manual whole-cell patch-clamp recordings were performed at room temperature (22–24 °C) using an EPC-10 amplifier (HEKA Electronik, Lambrecht/Pfalz, Germany) on cells that were grown to 60–80% confluency, lifted with TrypLE, and plated onto poly-l-lysine–coated coverslips. External bath solution contains (in mM) 160 NaCl, 4.5 KCl, 2 CaCl2, 1 MgCl2, 10 HEPES (pH 7.4 and 305 mOsm) as. Patch pipettes were heat-pulled from soda lime glass (micro-hematocrit tubes, Kimble Chase, Rochester, NY) and had resistances of 2–3 MΩ when filled with an internal solution. Patch recordings of NaV1.5 and NaV1.7 channels were done using a cesium fluoride-based internal solution containing (in mM) 10 NaF, 110 CsF, 20 CsCl, 10 HEPES, 2 EGTA, (pH 7.4, 310 mOsm). Recordings of HERG channels were conducted using a potassium fluoride-based internal solution with added ATP (160 mM KF, 2 mM MgCl2, 10 mM EGTA, 10 mM HEPES, 4 mM NaATP, pH = 7.2 and 300–320 mOsm). Data acquisition and analysis were performed with Pulse-PulseFit (HEKA Electronik GmbH, Germany), IgorPro (WaveMetrics, Portland, OR), and Origin 9.0 software (OriginLab Corporation, Northampton, MA). To investigate specifically the inactivated state block of NaV1.7 and NaV1.5, holding potentials were set at the V1/2 of maximal inactivation (− 70 mV and − 80 mV, respectively) before voltage stepping to − 150 mV for 20 msec, and then 0 mV for 50 msec to elicit inward currents. Inhibition of currents in the resting state was recorded using a holding potential of − 120 mV. Control test currents were monitored for up to 5–10 min to ensure that the amplitude and kinetics of the response were stable. Series resistance was compensated to 80–90% and linear leak currents and capacitance artifacts were corrected using a P/4 subtraction method. The pulse interval was 0.1 Hz. For all experiments, stock solutions of the drugs were prepared fresh from 10 mM stocks in DMSO and test solutions prepared in external bath solutions were applied to individual cells into the recording bath. […] The percent reduction of HERG tail current amplitude by the compounds was determined. The percent of a block of tail current amplitude by the drugs was determined and data are shown as mean +/− SD (n = 3–4 per data point).

T4 sequence (Q15858 whole entry): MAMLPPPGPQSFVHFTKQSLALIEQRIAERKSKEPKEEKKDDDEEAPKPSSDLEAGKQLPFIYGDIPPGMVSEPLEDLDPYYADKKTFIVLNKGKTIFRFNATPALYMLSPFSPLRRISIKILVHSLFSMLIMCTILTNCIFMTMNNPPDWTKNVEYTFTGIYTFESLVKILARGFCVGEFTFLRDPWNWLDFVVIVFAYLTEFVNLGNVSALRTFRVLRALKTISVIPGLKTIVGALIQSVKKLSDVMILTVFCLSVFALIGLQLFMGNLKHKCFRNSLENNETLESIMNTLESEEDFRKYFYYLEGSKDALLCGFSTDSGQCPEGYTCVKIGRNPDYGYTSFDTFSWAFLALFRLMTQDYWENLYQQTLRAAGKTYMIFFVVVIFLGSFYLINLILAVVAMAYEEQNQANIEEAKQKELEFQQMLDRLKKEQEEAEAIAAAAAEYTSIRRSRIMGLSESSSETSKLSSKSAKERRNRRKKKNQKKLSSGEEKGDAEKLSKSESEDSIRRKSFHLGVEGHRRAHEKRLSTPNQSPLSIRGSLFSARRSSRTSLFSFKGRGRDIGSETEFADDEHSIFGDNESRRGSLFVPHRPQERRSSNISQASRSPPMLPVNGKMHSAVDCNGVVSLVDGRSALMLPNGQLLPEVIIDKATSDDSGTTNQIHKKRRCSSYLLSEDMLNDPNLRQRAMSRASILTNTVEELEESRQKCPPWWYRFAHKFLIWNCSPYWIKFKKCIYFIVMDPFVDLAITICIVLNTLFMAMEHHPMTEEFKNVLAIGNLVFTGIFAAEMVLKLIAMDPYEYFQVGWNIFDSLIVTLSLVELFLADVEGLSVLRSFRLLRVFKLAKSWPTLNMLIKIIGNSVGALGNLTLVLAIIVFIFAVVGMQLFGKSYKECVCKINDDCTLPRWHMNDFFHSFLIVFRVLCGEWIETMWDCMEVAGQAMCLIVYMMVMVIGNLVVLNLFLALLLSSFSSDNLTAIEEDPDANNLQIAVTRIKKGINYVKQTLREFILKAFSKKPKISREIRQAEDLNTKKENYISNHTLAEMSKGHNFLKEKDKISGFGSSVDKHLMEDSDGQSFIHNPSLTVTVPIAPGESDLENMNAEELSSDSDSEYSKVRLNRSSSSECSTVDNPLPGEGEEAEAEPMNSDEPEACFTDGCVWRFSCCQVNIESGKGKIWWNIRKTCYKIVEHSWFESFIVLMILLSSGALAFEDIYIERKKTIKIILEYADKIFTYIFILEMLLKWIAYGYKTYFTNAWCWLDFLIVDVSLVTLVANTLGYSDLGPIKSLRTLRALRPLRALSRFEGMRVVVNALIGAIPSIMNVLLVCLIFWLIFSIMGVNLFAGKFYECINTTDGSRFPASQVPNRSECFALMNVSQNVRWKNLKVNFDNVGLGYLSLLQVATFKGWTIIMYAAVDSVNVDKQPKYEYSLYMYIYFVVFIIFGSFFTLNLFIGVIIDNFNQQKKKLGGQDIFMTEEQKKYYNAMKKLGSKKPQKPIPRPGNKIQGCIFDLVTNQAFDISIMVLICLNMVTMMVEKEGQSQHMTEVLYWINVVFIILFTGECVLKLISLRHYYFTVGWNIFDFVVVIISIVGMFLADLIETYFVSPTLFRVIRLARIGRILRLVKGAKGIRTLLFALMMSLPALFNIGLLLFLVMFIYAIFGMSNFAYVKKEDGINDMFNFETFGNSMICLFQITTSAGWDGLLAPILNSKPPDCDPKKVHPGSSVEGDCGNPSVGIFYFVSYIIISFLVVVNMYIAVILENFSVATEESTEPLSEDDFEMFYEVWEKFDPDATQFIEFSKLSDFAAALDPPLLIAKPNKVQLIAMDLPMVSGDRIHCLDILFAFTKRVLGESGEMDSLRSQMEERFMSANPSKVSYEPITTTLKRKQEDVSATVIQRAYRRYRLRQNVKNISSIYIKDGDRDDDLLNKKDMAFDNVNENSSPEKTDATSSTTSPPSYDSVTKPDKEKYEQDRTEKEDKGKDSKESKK
T2 sequence (Q12809 whole entry): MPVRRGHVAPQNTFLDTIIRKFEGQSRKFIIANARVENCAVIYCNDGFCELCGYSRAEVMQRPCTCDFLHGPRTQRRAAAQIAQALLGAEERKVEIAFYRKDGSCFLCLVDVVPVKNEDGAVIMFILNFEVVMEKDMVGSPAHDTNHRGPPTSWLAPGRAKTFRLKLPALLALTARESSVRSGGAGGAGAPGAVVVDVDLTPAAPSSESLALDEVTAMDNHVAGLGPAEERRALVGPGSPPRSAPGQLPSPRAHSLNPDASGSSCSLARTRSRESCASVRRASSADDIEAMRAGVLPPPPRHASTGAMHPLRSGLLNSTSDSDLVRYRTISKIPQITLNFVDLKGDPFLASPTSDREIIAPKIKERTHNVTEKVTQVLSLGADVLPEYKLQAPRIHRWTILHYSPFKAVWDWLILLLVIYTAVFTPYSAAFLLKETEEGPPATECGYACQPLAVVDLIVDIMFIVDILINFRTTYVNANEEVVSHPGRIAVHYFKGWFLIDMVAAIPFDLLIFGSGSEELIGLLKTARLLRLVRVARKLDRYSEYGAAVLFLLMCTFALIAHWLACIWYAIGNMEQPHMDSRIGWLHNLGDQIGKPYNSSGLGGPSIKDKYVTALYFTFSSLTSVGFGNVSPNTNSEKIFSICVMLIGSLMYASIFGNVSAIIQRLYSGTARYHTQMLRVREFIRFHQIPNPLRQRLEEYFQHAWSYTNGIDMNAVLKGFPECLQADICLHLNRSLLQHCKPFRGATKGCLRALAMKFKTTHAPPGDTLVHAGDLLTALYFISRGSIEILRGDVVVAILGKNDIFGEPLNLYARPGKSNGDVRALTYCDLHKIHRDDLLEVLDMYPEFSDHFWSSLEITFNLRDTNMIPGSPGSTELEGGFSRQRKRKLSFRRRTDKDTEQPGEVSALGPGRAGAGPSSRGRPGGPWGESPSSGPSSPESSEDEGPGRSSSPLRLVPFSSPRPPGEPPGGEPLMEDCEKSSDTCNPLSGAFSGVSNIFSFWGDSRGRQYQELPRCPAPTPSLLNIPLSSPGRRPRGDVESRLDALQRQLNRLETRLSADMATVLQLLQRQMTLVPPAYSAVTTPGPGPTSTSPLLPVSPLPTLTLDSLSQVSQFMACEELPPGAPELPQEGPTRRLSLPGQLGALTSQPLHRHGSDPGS
T3 sequence (Q14524 whole entry): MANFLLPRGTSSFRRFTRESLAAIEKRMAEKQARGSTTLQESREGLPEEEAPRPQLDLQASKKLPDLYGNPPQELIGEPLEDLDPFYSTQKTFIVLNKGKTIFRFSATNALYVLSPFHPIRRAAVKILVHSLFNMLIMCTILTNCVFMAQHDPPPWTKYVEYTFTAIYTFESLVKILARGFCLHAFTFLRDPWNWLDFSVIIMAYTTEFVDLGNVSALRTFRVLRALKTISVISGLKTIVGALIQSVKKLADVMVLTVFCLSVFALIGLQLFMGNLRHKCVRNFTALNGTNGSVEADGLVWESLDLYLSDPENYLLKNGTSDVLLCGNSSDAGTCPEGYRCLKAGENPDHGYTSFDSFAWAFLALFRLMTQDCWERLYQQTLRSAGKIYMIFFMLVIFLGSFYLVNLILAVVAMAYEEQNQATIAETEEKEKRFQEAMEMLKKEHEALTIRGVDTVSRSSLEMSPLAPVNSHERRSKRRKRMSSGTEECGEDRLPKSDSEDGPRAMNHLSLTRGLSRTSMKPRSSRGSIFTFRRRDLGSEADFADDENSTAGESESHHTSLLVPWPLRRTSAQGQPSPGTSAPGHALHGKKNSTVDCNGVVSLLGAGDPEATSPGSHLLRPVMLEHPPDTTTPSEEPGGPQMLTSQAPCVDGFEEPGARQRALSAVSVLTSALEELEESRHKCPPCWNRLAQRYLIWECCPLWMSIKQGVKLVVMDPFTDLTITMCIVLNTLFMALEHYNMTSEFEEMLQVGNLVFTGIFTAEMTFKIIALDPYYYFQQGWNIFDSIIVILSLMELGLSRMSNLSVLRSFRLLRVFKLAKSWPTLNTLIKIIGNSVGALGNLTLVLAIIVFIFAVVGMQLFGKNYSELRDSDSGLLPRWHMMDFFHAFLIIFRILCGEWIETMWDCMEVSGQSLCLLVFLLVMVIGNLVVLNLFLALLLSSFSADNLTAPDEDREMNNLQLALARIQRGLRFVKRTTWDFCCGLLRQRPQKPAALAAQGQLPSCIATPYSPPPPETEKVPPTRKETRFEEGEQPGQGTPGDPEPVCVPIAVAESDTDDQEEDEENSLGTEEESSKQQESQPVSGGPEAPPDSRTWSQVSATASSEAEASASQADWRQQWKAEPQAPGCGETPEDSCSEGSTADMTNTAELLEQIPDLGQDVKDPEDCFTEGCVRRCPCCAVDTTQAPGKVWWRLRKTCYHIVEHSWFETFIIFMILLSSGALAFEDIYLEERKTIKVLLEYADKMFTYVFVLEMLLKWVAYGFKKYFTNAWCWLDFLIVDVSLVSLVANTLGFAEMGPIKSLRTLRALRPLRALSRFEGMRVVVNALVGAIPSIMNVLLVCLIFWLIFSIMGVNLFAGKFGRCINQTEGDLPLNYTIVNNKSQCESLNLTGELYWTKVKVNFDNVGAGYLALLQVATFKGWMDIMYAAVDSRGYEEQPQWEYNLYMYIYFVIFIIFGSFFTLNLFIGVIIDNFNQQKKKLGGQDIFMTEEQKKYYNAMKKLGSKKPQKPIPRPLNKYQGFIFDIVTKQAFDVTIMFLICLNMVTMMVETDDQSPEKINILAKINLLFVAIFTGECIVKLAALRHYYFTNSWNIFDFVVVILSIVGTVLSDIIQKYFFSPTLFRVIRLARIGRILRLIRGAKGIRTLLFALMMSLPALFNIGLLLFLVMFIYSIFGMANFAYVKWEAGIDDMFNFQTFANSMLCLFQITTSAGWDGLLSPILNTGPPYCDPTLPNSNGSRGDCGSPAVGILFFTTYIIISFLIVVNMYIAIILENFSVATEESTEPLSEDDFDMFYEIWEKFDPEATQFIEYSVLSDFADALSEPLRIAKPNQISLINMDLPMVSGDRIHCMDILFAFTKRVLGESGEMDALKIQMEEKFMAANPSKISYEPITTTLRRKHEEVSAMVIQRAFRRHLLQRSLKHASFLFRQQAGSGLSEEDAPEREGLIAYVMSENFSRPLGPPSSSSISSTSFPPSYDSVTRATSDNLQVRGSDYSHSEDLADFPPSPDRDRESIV

| SMILES | IC50 (KLHDC2 [1]) | IC50 (KLHDC2 [2]) | IC50 (HERG (hKv11.1)) | IC50 (human NaV1.5) | IC50 (hNaV1.7 channel; NaV1.7 inactivated state, -70 mV holding potential, read-out: inactivated-state IC50) | IC50 (hNaV1.7 channel; NaV1.7 resting state, -120 mV holding potential, read-out: resting state IC50) | selectivity for hNaV1.7 versus hNaV1.5 and hERG channels (hNaV1.7 channel; in words) | state dependence of NaV1.7 inhibition (hNaV1.7 channel; inactivated versus resting state, in words) |
| --- | --- | --- | --- | --- | --- | --- | --- | --- |
| CC(C)(C)c1ccc(CSCC(=O)NCc2cn(CC(=O)O)nn2)cc1 [Compound C29] | single digit | ~3 µM and 2.9 µM |  |  |  |  |  |  |
| Cc1cc(C(C)(C)C)ccc1OCC(O)CNCc1cc(C)c(C)s1 (centres unmarked) [Compound Z8739902234, CC=1C=C(CNCC(O)COC=2C=CC(=CC2C)C(C)(C)C)SC1C] |  |  | 6.27 µM | 5.14 µM | 1.33 µM and 1.3 µM | 13.1 µM | moderate selectivity | state dependent |
